Among the data in ChEMBL document CHEMBL4321784, “Inhibiting Hedgehog: An Update on Pharmacological Compounds and Targeting Strategies” (J Med Chem, 2019) are IC50 values, retold here.

Common to all, as to assay type: cell-based
Assay [1] has as its target Zinc finger protein GLI1/GLI2 (Mus musculus, UniProt P47806+Q0VGT2). The experiment in a line: Inhibition of GLI1/GLI2 in mouse Shh Light2 cells assessed as reduction in endogenous hedgehog signalling in presence of Smo agonist SAG by luciferase reporter gene assay.
Assay [2] concerns the target T1, Protein-cysteine N-palmitoyltransferase HHAT (Homo sapiens, UniProt Q5VTY9). As to the kind of experiment: Inhibition of 3C-FLAG/His8-tagged human HHAT expressed in HEK293 cells assessed as reduction in enzyme-mediated sonic hedgehog (1 to 11 residues) palmitoylation by click-ELISA method. On the technique in general: An ELISA detects its analyte on a solid surface through an enzyme-linked reagent.

Assay [3] deals with Sonic hedgehog protein (Mus musculus, UniProt Q62226). As to the kind of experiment: Inhibition of sonic hedgehog signaling in mouse Shh Light2 cells after […] by Bright-Glo luciferase assay.
Chain of Sonic hedgehog protein (Q62226 25-198 limits assumed): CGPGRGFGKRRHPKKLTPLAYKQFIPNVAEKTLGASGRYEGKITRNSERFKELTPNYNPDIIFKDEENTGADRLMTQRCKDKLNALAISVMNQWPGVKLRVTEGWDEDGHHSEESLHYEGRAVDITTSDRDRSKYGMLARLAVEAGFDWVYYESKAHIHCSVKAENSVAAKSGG
Assay [4] concerns the target T1, Protein-cysteine N-palmitoyltransferase HHAT. The experiment in a line: Inhibition of HA/FLAG/His-tagged HHAT (unknown origin) expressed in 293FT cells assessed as enzyme-mediated sonic hedgehog palmitoylation incubated for 20 mins followed by [125I]iodo-palmitoyl CoA and Shh biotinylated peptide and measured after 1 hr by Scintillation proximity assay. Background: In a scintillation proximity assay essentially only radioactivity close to the scintillant gives light.

A short description of assay [5]: Inhibition of mouse Smo A1 mutant expressed in mouse Shh Light2 cells assessed as reduction in hedgehog pathway activation incubated for 30 hrs by luminescence assay.

T1 sequence (Q5VTY9 whole entry, the tested form may be a part): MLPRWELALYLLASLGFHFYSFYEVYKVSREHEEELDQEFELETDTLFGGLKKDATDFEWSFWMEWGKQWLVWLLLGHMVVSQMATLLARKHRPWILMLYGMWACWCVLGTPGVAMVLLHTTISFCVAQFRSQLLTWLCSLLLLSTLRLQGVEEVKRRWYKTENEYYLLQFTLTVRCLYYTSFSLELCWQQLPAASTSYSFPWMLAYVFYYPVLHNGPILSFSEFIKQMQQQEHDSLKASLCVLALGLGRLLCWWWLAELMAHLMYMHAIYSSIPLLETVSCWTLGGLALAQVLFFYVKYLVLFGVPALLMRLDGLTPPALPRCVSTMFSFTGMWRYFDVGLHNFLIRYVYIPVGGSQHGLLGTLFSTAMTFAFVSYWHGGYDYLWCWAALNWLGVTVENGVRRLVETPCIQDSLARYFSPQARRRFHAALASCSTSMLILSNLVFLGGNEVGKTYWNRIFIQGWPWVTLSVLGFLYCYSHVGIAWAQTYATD

One may read the IC50 as the midpoint of a concentration-inhibition curve. Regarding `c1cc(-c2sc(-c3ccncc3)c(-c3ccncc3)c2-c2ccncc2)ccn1`, the IC50 in assay [1] was 5000 nM. With `CCC(C)CNCC(=O)N1CCc2sccc2C1c1cccc(C)n1` (stereo unspecified), the IC50 in assay [2] is 200 nM.

In assay [3], `O=C(C[C@@H]1C/C=C/CCC(=O)O[C@H](c2ccccc2)CNC1=O)NCc1ccc(Cl)cc1` [ROBOTNIKININ] displayed an IC50 of 4000 nM. `CCC(C)CNCC(=O)N1CCc2sccc2C1COc1cccc(C)c1` (stereo unspecified): the IC50 in assay [4] came out at 850 nM. Consider `CN(C)c1ccccc1CN1CCCN(Cc2ccccc2N(C)C)C1c1ccncc1`, for which the IC50 in assay [1] amounted to 5000 nM. On to `CCC(C)n1ncn(-c2ccc(N3CCN(c4ccc(OCC5COC(Cn6cncn6)(c6ccc(Cl)cc6Cl)O5)cc4)CC3)cc2)c1=O` (stereo unspecified) [ITRACONAZOLE], for which the IC50 in assay [5] was 800 nM.
